Reference: patent US6358885B1, “Substituted phenylheterocyclic herbicides” (Mississippi State University, priority 1992, dated 2002)

Experiments:
rice = experiment: Test C flood test plant response rating 0 to 100; assay type: in vivo, Oryza sativa
Outline: (§1)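 Compounds in non-phytotoxic solvent applied preemergence to sandy loam one day after planting, postemergence at the 1–4 leaf stage, or to ~2.5 cm floodwater over silt loam.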

crabgrass [1] = experiment: Test B preemergence/postemergence greenhouse plant response rating 0 to 10; assay type: in vivo, Digitaria spp.; conditions: 0 to 10 scale
Outline: (§2)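 Planted seeds are treated preemergence with compound dissolved in a non-phytotoxic solvent, while postemergence applications go onto plants of two to eighteen cm. Plants stay in the greenhouse twelve to sixteen days and are then rated visually relative to controls.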

barley = experiment: as above; assay type: in vivo, Hordeum vulgare; conditions: 0 to 10 scale
Outline: as §2

sorghum = experiment: as above; assay type: in vivo, Sorghum bicolor; conditions: 0 to 10 scale
Outline: as §2

corn = experiment: as above; assay type: in vivo, Zea mays; conditions: 0 to 10 scale
Outline: as §2

duck salad = experiment: Test C flood test plant response rating 0 to 100; assay type: in vivo, Heteranthera limosa
Outline: as §1

rape = experiment: Test B preemergence/postemergence greenhouse plant response rating 0 to 10; assay type: in vivo, Brassica napus; conditions: 0 to 10 scale
Outline: as §2

wild buckwheat = experiment: Test C preemergence/postemergence greenhouse plant response rating 0 to 100; assay type: in vivo, Polygonum convolvulus
Outline: as §1

downy brome = experiment: as above; assay type: in vivo, Bromus tectorum; conditions: for Plant response rating Downy Brome: 62 g/ha, 0 to 100 scale
Outline: as §1

barnyardgrass = experiment: Test B preemergence/postemergence greenhouse plant response rating 0 to 10; assay type: in vivo, Echinochloa crus-galli; conditions: 0 to 10 scale
Outline: as §2

giant foxtail [2] = experiment: as above; assay type: in vivo, Setaria faberii; conditions: 0 to 10 scale
Outline: as §2

chickweed [3] = experiment: Test C preemergence/postemergence greenhouse plant response rating 0 to 100; assay type: in vivo, Stellaria media; conditions: for Plant response rating, Chickweed: 62 g/ha, 0 to 100 scale
Outline: as §1

wild oat = experiment: as above; assay type: in vivo, Avena fatua
Outline: as §1

giant foxtail [4] = experiment: as above; assay type: in vivo, Setaria faberii; conditions: for Plant response rating, Giant foxtail: 62 g/ha, 0 to 100 scale
Outline: as §1

crabgrass [5] = experiment: as above; assay type: in vivo, Digitaria sanguinalis; conditions: for Plant response rating, Crabgrass: 62 g/ha, 0 to 100 scale
Outline: as §1

bedstraw = experiment: as above; assay type: in vivo, Galium aparine; conditions: for Plant response rating, Bedstraw: 62 g/ha, 0 to 100 scale
Outline: as §1

wheat = experiment: Test B preemergence/postemergence greenhouse plant response rating 0 to 10; assay type: in vivo, Triticum aestivum; conditions: 0 to 10 scale
Outline: as §2

chickweed [6] = experiment: as above; assay type: in vivo, Stellaria media; conditions: 0 to 10 scale
Outline: as §2

[7] = POSTEMERGENCE section, flood test, Rate 1 g/ha
[8] = POSTEMERGENCE section, flood test, Rate 4 g/ha
[9] = Rate 16 g/ha, under POSTEMERGENCE head (flood test species)
[10] = flood test species listed under POSTEMERGENCE, 62 g/ha, 0 to 100 scale
[11] = POSTEMERGENCE, 62 g/ha, 0 to 100 scale

## CCN1C(=O)COc2cc(F)c(-c3nn4c(c3Cl)CCCC4)cc21 [Compound 54]
rice; [7]
  Plant response rating (0 to 100), Rice Japonica: 0
rice; [8]
  Plant response rating (0 to 100), Rice Japonica: 0
rice; [9]
  Plant response rating (0 to 100), Rice Japonica: 55
rice; [10]
  Plant response rating Rice Japonica: 85
Crabgrass [1]; POSTEMERGENCE, Rate 10 g/ha
  Plant response rating, Crabgrass: 2
Crabgrass [1]; POSTEMERGENCE, Rate 50 g/ha
  Plant response rating, Crabgrass: 3
Crabgrass [1]; PREEMERGENCE, Rate 10 g/ha
  Plant response rating, Crabgrass: 0
Crabgrass [1]; PREEMERGENCE, Rate 50 g/ha
  Plant response rating, Crabgrass: 0
barley; POSTEMERGENCE, Rate 10 g/ha
  Plant response rating, Barley: 4
barley; POSTEMERGENCE, Rate 50 g/ha
  Plant response rating, Barley: 4
barley; PREEMERGENCE, Rate 10 g/ha
  Plant response rating, Barley: 0
barley; PREEMERGENCE, Rate 50 g/ha
  Plant response rating, Barley: 2
sorghum; POSTEMERGENCE, Rate 10 g/ha
  Plant response rating, Sorghum: 3
sorghum; POSTEMERGENCE, Rate 50 g/ha
  Plant response rating, Sorghum: 3
sorghum; PREEMERGENCE, Rate 50 g/ha
  Plant response rating, Sorghum: 1
corn; POSTEMERGENCE, Rate 10 g/ha
  Plant response rating, Corn: 3
corn; POSTEMERGENCE, Rate 50 g/ha
  Plant response rating, Corn: 3
corn; PREEMERGENCE, Rate 50 g/ha
  Plant response rating, Corn: 0
Duck salad; [7]
  Plant response rating (0 to 100), Duck salad: 0
Duck salad; [8]
  Plant response rating (0 to 100), Duck salad: 0
Duck salad; [9]
  Plant response rating (0 to 100), Duck salad: 35
Duck salad; [10]
  Plant response rating Duck salad: 100
rape; POSTEMERGENCE, Rate 10 g/ha
  Plant response rating, Rape: 10
rape; POSTEMERGENCE, Rate 50 g/ha
  Plant response rating, Rape: 10
rape; PREEMERGENCE, Rate 50 g/ha
  Plant response rating, Rape: 6
Wild buckwheat; [11]
  Plant response rating, Wild buckwheat: 100
Wild buckwheat; POSTEMERGENCE, Rate 1 g/ha
  Plant response rating (0 to 100), Wild buckwheat: 100
Wild buckwheat; POSTEMERGENCE, Rate 4 g/ha
  Plant response rating (0 to 100), Wild buckwheat: 100
Wild buckwheat; PREEMERGENCE, Rate 1 g/ha
  Plant response rating (0 to 100), Wild buckwheat: 0
Wild buckwheat; PREEMERGENCE, Rate 4 g/ha
  Plant response rating (0 to 100), Wild buckwheat: 0
Wild buckwheat; Rate 16 g/ha, POSTEMERGENCE
  Plant response rating (0 to 100), Wild buckwheat: 100
Wild buckwheat; Rate 16 g/ha, PREEMERGENCE
  Plant response rating (0 to 100), Wild buckwheat: 100
Downy brome; POSTEMERGENCE
  Plant response rating Downy Brome: 60
Downy brome; POSTEMERGENCE, Rate 1 g/ha
  Plant response rating (0 to 100), Downy Brome: 10
Downy brome; POSTEMERGENCE, Rate 4 g/ha
  Plant response rating (0 to 100), Downy Brome: 30
Downy brome; PREEMERGENCE
  Plant response rating Downy Brome: 30
Downy brome; PREEMERGENCE, Rate 1 g/ha
  Plant response rating (0 to 100), Downy Brome: 0
Downy brome; PREEMERGENCE, Rate 4 g/ha
  Plant response rating (0 to 100), Downy Brome: 0
Downy brome; Rate 16 g/ha, POSTEMERGENCE
  Plant response rating (0 to 100), Downy Brome: 50
Downy brome; Rate 16 g/ha, PREEMERGENCE
  Plant response rating (0 to 100), Downy Brome: 20
barnyardgrass; POSTEMERGENCE, Rate 10 g/ha
  Plant response rating, Barnyardgrass: 3
barnyardgrass; POSTEMERGENCE, Rate 50 g/ha
  Plant response rating, Barnyardgrass: 5
barnyardgrass; PREEMERGENCE, Rate 10 g/ha
  Plant response rating, Barnyardgrass: 0
barnyardgrass; PREEMERGENCE, Rate 50 g/ha
  Plant response rating, Barnyardgrass: 3
Giant foxtail [2]; POSTEMERGENCE, Rate 10 g/ha
  Plant response rating, Giant foxtail: 4
Giant foxtail [2]; POSTEMERGENCE, Rate 50 g/ha
  Plant response rating, Giant foxtail: 4
Giant foxtail [2]; PREEMERGENCE, Rate 10 g/ha
  Plant response rating, Giant foxtail: 0
Giant foxtail [2]; PREEMERGENCE, Rate 50 g/ha
  Plant response rating, Giant foxtail: 8
Chickweed [3]; POSTEMERGENCE
  Plant response rating, Chickweed: 100
Chickweed [3]; POSTEMERGENCE, Rate 1 g/ha
  Plant response rating (0 to 100), Chickweed: 60
Chickweed [3]; POSTEMERGENCE, Rate 4 g/ha
  Plant response rating (0 to 100), Chickweed: 75
Chickweed [3]; PREEMERGENCE
  Plant response rating, Chickweed: 100
Chickweed [3]; PREEMERGENCE, Rate 1 g/ha
  Plant response rating (0 to 100), Chickweed: 0
Chickweed [3]; PREEMERGENCE, Rate 4 g/ha
  Plant response rating (0 to 100), Chickweed: 0
Chickweed [3]; Rate 16 g/ha, POSTEMERGENCE
  Plant response rating (0 to 100), Chickweed: 100
Chickweed [3]; Rate 16 g/ha, PREEMERGENCE
  Plant response rating (0 to 100), Chickweed: 20
Wild oat; [11]
  Plant response rating, Wild oat: 60
Wild oat; POSTEMERGENCE, Rate 1 g/ha
  Plant response rating (0 to 100), Wild oat: 20
Wild oat; POSTEMERGENCE, Rate 4 g/ha
  Plant response rating (0 to 100), Wild oat: 30
Wild oat; PREEMERGENCE, Rate 1 g/ha
  Plant response rating (0 to 100), Wild oat: 0
Wild oat; PREEMERGENCE, Rate 4 g/ha
  Plant response rating (0 to 100), Wild oat: 0
Wild oat; Rate 16 g/ha, POSTEMERGENCE
  Plant response rating (0 to 100), Wild oat: 40
Wild oat; Rate 16 g/ha, PREEMERGENCE
  Plant response rating (0 to 100), Wild oat: 10
Giant foxtail [4]; POSTEMERGENCE
  Plant response rating, Giant foxtail: 70
Giant foxtail [4]; POSTEMERGENCE, Rate 1 g/ha
  Plant response rating (0 to 100), Giant foxtail: 10
Giant foxtail [4]; POSTEMERGENCE, Rate 4 g/ha
  Plant response rating (0 to 100), Giant foxtail: 20
Giant foxtail [4]; PREEMERGENCE
  Plant response rating, Giant foxtail: 60
Giant foxtail [4]; PREEMERGENCE, Rate 1 g/ha
  Plant response rating (0 to 100), Giant foxtail: 0
Giant foxtail [4]; PREEMERGENCE, Rate 4 g/ha
  Plant response rating (0 to 100), Giant foxtail: 0
Giant foxtail [4]; Rate 16 g/ha, POSTEMERGENCE
  Plant response rating (0 to 100), Giant foxtail: 40
Giant foxtail [4]; Rate 16 g/ha, PREEMERGENCE
  Plant response rating (0 to 100), Giant foxtail: 0
Crabgrass [5]; POSTEMERGENCE
  Plant response rating, Crabgrass: 50
Crabgrass [5]; POSTEMERGENCE, Rate 1 g/ha
  Plant response rating (0 to 100), Crabgrass: 10
Crabgrass [5]; POSTEMERGENCE, Rate 4 g/ha
  Plant response rating (0 to 100), Crabgrass: 20
Crabgrass [5]; PREEMERGENCE
  Plant response rating, Crabgrass: 50
Crabgrass [5]; PREEMERGENCE, Rate 1 g/ha
  Plant response rating (0 to 100), Crabgrass: 0
Crabgrass [5]; PREEMERGENCE, Rate 4 g/ha
  Plant response rating (0 to 100), Crabgrass: 0
Crabgrass [5]; Rate 16 g/ha, POSTEMERGENCE
  Plant response rating (0 to 100), Crabgrass: 30
Crabgrass [5]; Rate 16 g/ha, PREEMERGENCE
  Plant response rating (0 to 100), Crabgrass: 0
bedstraw; POSTEMERGENCE
  Plant response rating, Bedstraw: 100
bedstraw; POSTEMERGENCE, Rate 1 g/ha
  Plant response rating (0 to 100), Bedstraw: 65
bedstraw; POSTEMERGENCE, Rate 4 g/ha
  Plant response rating (0 to 100), Bedstraw: 85
bedstraw; PREEMERGENCE
  Plant response rating, Bedstraw: 50
bedstraw; PREEMERGENCE, Rate 1 g/ha
  Plant response rating (0 to 100), Bedstraw: 0
bedstraw; PREEMERGENCE, Rate 4 g/ha
  Plant response rating (0 to 100), Bedstraw: 0
bedstraw; Rate 16 g/ha, POSTEMERGENCE
  Plant response rating (0 to 100), Bedstraw: 100
bedstraw; Rate 16 g/ha, PREEMERGENCE
  Plant response rating (0 to 100), Bedstraw: 30
wheat; POSTEMERGENCE, Rate 10 g/ha
  Plant response rating, Wheat: 6
wheat; POSTEMERGENCE, Rate 50 g/ha
  Plant response rating, Wheat: 6
wheat; PREEMERGENCE, Rate 50 g/ha
  Plant response rating, Wheat: 3
Chickweed [6]; POSTEMERGENCE, Rate 50 g/ha
  Plant response rating, Chickweed: 10
Chickweed [6]; PREEMERGENCE, Rate 10 g/ha
  Plant response rating, Chickweed: 9
Chickweed [6]; PREEMERGENCE, Rate 50 g/ha
  Plant response rating, Chickweed: 10
